{"source": "patent US11490856B2", "about": "“Method and a system for analyzing neuropharmacology of a drug” (City University of Hong Kong, priority 2018, dated 2022)", "key": {"[1]": {"experiment": "Solubility in water noted when preparing behavioral test concentrations", "format": "physicochemical", "quoted_text": "(§1) The experimental protocol uses a 96-well plate, with one zebrafish larva (5 days post-fertilization) in 90 μL of fish water in each well. 10 μL of a 10× solution of compound in 10% DMSO was added to each well to achieve the final concentration shown in the data, and for a final concentration of 1% DMSO. […] The larvae were pre-treated with compound for four hours, followed by a two minute dark stimulation to ensure fish were not sedated, followed by a 15 minutes period of observation for deviation from the anticipated normal movement/swimming behavior. […] After a 15 minute observation period, the larvae were treated with PTZ to a final concentration of 5 mM, and the number of seizures per larva at each concentration quantified for 15 minutes following PTZ treatment. The DanioVision platform (Noldus) was used to perform the animal behavioral recoding and analysis."}, "[2]": {"system": "pentylenetetrazole (PTZ) induced zebrafish seizure model", "conditions": "for seizure count over 15 minutes after PTZ: 5 mM PTZ after 4 hour pre-incubation with compound, n=12, vs DMSO control; for concentration at which seizures were reduced: 5 mM PTZ after 4 hour pre-incubation", "quoted_text": "In these experiments, with reference to FIG. 38, following a four-hour drug incubation period, zebrafish larvae were pre-monitored for normal movements/swimming behavior for 17 minutes. […] At the 17-minute mark, the larvae were treated with PTZ to a final concentration of 5 mM, and the number of seizures per larva and the average number of seizures at each concentration were quantified for 15 minutes following PTZ exposure.\nas §1"}, "[3]": {"system": "kainic-acid induced seizure model", "conditions": "mice, shown previously; cited from earlier work"}, "animal models": {"system": "animal models", "conditions": "previously reported; cited from earlier work"}, "PTZ-larvae": {"system": "PTZ-larvae", "experiment": "Calcium fluctuation traces and T-score BAM of PTZ-treated larval brains", "format": "in vivo, zebrafish", "conditions": "5 mM PTZ; 4 hour treatment at 10 μM", "source_text": "With reference to FIGS. 39C to 39E, Such pharmacological effects could also be observed in the diametrically opposed BAMS from zebrafish treated in the same manner. NNC-711 is thought to principally act through the inhibition of GABA uptake from the synaptic cleft and glia via inhibition of SLC6A1 (solute carrier family 6 member 1; (GAT1)) leading to increased GABA-ergic neurotransmission."}, "[4]": {"system": "rat models of induced epilepsy", "conditions": "literature; cited from earlier work"}, "zebrafish brain": {"system": "zebrafish brain", "experiment": "HT-BAMing whole-brain activity mapping (T-score BAM) by calcium imaging of awake larvae", "format": "in vivo", "conditions": "for change in brain neural activity (T-score BAM pattern): 10 μM dose, 15-minute perfusion, five larvae per compound", "protocol": "The transgenic zebrafish line elav13:GCaMP5G may be maintained in aquaria under standard laboratory conditions (at 28° C. under a cycle of 14 h light, 10 h dark). Larvae of 6-8 dpf were used in the HT-BAMing experiments.\nFor example, the imaging process may be performed on a fully automated inverted fluorescent microscope (Olympus IX81) equipped with a cooled sCMOS camera (Neo, ANDOR) with a 10× (NA, 0.4) objective. Micro-manager 1.4 may be installed to control the microscope. For high-resolution, confocal imaging and Leica SP8 microscope with a resonant scanner may be used.\nFurthermore, a drug perfusion time may be set in which the two syringes may contain different fluid or solutions such that the changes induced by the drug may be recorded. With reference to FIGS. 8 and 9, to generate the functional BAM of a larva in response to a 15-minute period of chemical perfusion, or “treatment”, each larva was imaged over a 10-minute period before and after treatment.\nIn the experiments performed by the inventors, all drugs or compounds were dissolved in DMSO as a vehicle as ˜10 mM stock solutions. Treatment of the larvae was performed simply by switching the perfusion solution after immobilizing larvae in the microfluidic chip as shown in FIG. 8. Final concentrations of compounds tested in the primary screen were […].\nIn one example embodiment, the transformation module 106 is arrange to construct the brain activity maps 110 based on counting neural spikes representing changes of brain activity as detected on the images obtained. With reference to FIGS. 1 and 9, readings from multiple focal planes along the Z-axis (ventral direction) were acquired, and accumulated spike counts were derived from the calcium fluctuations of each Z-plane with a lateral resolution of 15.21 μm^2. The difference in spike-counts between the post- and pre-treatment periods was calculated and projected (by summing up along the Z-axis) to a two-dimensional surface to construct a BAM that reflects changes in brain activity and physiology of an individual larva in response to treatment.\nWith reference also to FIG. 10, a heat map may be used to intuitively display the activation level of the brain. To map brain activity, every collected frame from calcium imaging may be first meshed into small ROIs, each with a size of 15.21 μm^2. The time series of fluorescence signal in each ROI may then be filtered by a high pass filter to remove the interference from illumination fluctuations. The resulting trace may be used to calculate and visualize the spiking activities. For spike counting, a threshold may be applied to detect spikes from neural activity.\nIn the experiment, for each compound, the spike count data from five independent zebrafish larvae over a 10-minute period before and a 15-minute period after compound treatment. Before comparison across different samples, all the images were first resized and aligned to a uniform zebrafish brain template with the following process: for each raw image, the dark background was first removed to extract the fluorescent brain region, which was then mapped to the standard template via specific transformative adjustments (e.g. rotation, translation) using the brain center-line as a registration landmark and such that the symmetry with respect to the center-line was maximized in the resulted image. Lastly, the fish eye region was further removed by taking the regions within the template for downstream analysis.\nA brain activity map (BAM) A=[aij] was then derived by taking the change (increase or decrease) of spike counts in each ROI before (t0) and after chemical treatment (t1), and summed across multiple layers along the Z-axis:\nFor each compound, BAMs from five individual larvae were acquired following treatment with a 10 μM dose."}, "dopamine levels": {"system": "dopamine levels", "conditions": "mice, literature; cited from earlier work"}}, "note": "Read-outs that look alike come from different tables or passages of the source."}
{"smiles": "O=c1cc(-c2ccccc2)oc2c(O)c(O)ccc12", "note": "[7,8-dihydroxyflavone]", "values": [{"measurement": "solubility", "setting": "[1]", "value": "highly insoluble in water"}]}
{"smiles": "COc1ccc(CNC(=O)Nc2ncc([N+](=O)[O-])s2)cc1", "note": "[AR-A014418]", "values": [{"measurement": "solubility", "setting": "[1]; water / fish water, 1% DMSO", "value": "highly insoluble in water"}]}
{"smiles": "CC1=NN=C(c2ccc(N)cc2)c2cc3c(cc2C1)OCO3", "note": "[GYKI-52466]", "values": [{"measurement": "seizure count over 15 minutes after PTZ", "setting": "[2]", "value": "confirmed"}, {"measurement": "seizure count over 15 minutes after PTZ", "setting": "[2]; listed as GYKI 54266", "value": "hit compounds"}, {"measurement": "anticonvulsant activity in kainic-acid induced seizure model", "setting": "[3]", "value": "anticonvulsant activity"}]}
{"smiles": "Oc1noc2c1CCNC2", "note": "[Gaboxadol]", "values": [{"measurement": "anti-epileptic activity in animal models", "setting": "animal models", "value": "anti-epileptic activity"}]}
{"smiles": "O=C(O)C1=CCCN(CCON=C(c2ccccc2)c2ccccc2)C1", "note": "[NNC-711, NNC 711]", "values": [{"measurement": "seizure activity in larval brain (calcium fluctuation, T-score BAM)", "setting": "PTZ-larvae", "value": "reduction of seizure activity"}, {"measurement": "concentration at which seizures were reduced", "setting": "[2]", "value": 25, "unit": "µM"}, {"measurement": "anti-epileptic activity in animal models", "setting": "animal models", "value": "anti-epileptic activity"}, {"measurement": "anticonvulsant efficacy in rat models of induced epilepsy", "setting": "[4]", "value": "anticonvulsant efficacy"}]}
{"smiles": "OC(CNc1ccccc1)Cn1c2ccc(Br)cc2c2cc(Br)ccc21", "note": "(centres unmarked) [P7C3]", "values": [{"measurement": "solubility", "setting": "[1]; water / fish water, 1% DMSO", "value": "highly insoluble in water"}]}
{"smiles": "Cc1ncc(CSSCc2cnc(C)c(O)c2CO)c(CO)c1O", "note": "[Pyrithioxine]", "values": [{"measurement": "change in brain neural activity (T-score BAM pattern)", "setting": "zebrafish brain", "value": "increased activity brain-wide"}, {"measurement": "change of action potential firing rate in selected neuronal cells from a zebrafish brain", "setting": "zebrafish brain; FIG. 9, after drug treatment", "value": "excitation"}]}
{"smiles": "Cl.O=C(O)C1CCCN(CCC=C(c2ccccc2)c2ccccc2)C1", "note": "(centres unmarked) [SKF89976A, SKF 89976A]", "values": [{"measurement": "anti-epileptic activity in animal models", "setting": "animal models", "value": "anti-epileptic activity"}]}
{"smiles": "OCCCCC#Cc1cncc(OC[C@@H]2CCN2)c1", "note": "[Sazetidine]", "values": [{"measurement": "seizure count over 15 minutes after PTZ", "setting": "[2]", "value": "hit compounds"}]}
{"smiles": "CNC(=O)[C@@H](Cc1ccccc1)N(C)C(=O)[C@@H](Cc1ccc2ccccc2c1)N(C)C(=O)/C=C/CC(C)(C)N", "note": "[Tabimorelin]", "values": [{"measurement": "seizure count over 15 minutes after PTZ", "setting": "[2]", "value": "hit compounds"}]}
{"smiles": "CN1CCc2c(c3ccccc3n2Cc2ccc(C(=O)NO)cc2)C1", "note": "[Tubastatin A]", "values": [{"measurement": "concentration at which seizures were reduced", "setting": "[2]", "value": 500, "unit": "µM"}, {"measurement": "seizure count over 15 minutes after PTZ", "setting": "[2]", "value": "hit compounds"}, {"measurement": "seizure count over 15 minutes after PTZ", "setting": "[2]; listed as Tubastatin-A", "value": "reduced seizure count"}]}
{"smiles": "COc1ccc(/C=C/c2cc(OC)cc(=O)o2)cc1", "note": "[Yangonin]", "values": [{"measurement": "solubility", "setting": "[1]", "value": "highly insoluble in water"}, {"measurement": "seizure count over 15 minutes after PTZ", "setting": "[2]", "value": "hit compounds"}]}
{"smiles": "COc1ccc2cc3[n+](cc2c1OC)CCc1cc2c(cc1-3)OCO2", "note": "[berberine, Berberine]", "values": [{"measurement": "effect on dopamine levels", "setting": "dopamine levels", "value": "increase dopamine levels"}]}
{"smiles": "NC(=O)N1c2ccccc2C=Cc2ccccc21", "note": "[carbamazepine, Carbamazepine]", "values": [{"measurement": "change in brain neural activity (T-score BAM pattern)", "setting": "zebrafish brain", "value": "inhibition of activity across almost the entire brain"}]}
{"smiles": "CCC1(C)CC(=O)NC1=O", "note": "(centres unmarked) [ethosuximide, Ethosuximide]", "values": [{"measurement": "change in brain neural activity (T-score BAM pattern)", "setting": "zebrafish brain", "value": "inhibition of activity across almost the entire brain"}]}
{"smiles": "Nc1nnc(-c2cccc(Cl)c2Cl)c(N)n1", "note": "[lamotrigine, Lamotrigine]", "values": [{"measurement": "change in brain neural activity (T-score BAM pattern)", "setting": "zebrafish brain", "value": "inhibition of activity across almost the entire brain"}]}
{"smiles": "CC[C@@H](C(N)=O)N1CCCC1=O", "note": "[levetiracetam, Levetiracetam]", "values": [{"measurement": "change in brain neural activity (T-score BAM pattern)", "setting": "zebrafish brain", "value": "inhibition of activity across almost the entire brain"}]}
{"smiles": "NC(=O)N1c2ccccc2CC(=O)c2ccccc21", "note": "[oxcarbazepine]", "values": [{"measurement": "change in brain neural activity (T-score BAM pattern)", "setting": "zebrafish brain", "value": "inhibition of activity across almost the entire brain"}]}
{"smiles": "N#Cc1ccccc1-c1cc(-c2ccccn2)cn(-c2ccccc2)c1=O", "note": "[perampanel, Perampanel]", "values": [{"measurement": "change in brain neural activity (T-score BAM pattern)", "setting": "zebrafish brain", "value": "inhibition of activity across almost the entire brain"}]}
{"smiles": "NC(=O)CCC/N=C(\\c1ccc(Cl)cc1)c1cc(F)ccc1O", "note": "[progabide, Progabide]", "values": [{"measurement": "change in brain neural activity (T-score BAM pattern)", "setting": "zebrafish brain", "value": "inhibition of activity across almost the entire brain"}]}
{"smiles": "COc1cccc([C@H](O)C2CCN(CCc3ccc(F)cc3)CC2)c1OC", "note": "[volinanserin]", "values": [{"measurement": "solubility", "setting": "[1]", "value": "highly insoluble in water"}, {"measurement": "seizure count over 15 minutes after PTZ", "setting": "[2]", "value": "reduced seizures"}, {"measurement": "seizure count over 15 minutes after PTZ", "setting": "[2]; listed as Volinanerin", "value": "hit compounds"}]}
